Laboratory results as given in ChEMBL document CHEMBL5532668, “Pitfalls and Considerations in Determining the Potency and Mutant Selectivity of Covalent Epidermal Growth Factor Receptor Inhibitors” (J Med Chem, 2024).

What was measured:
[1] = system: Epidermal growth factor receptor (Homo sapiens), P00533 [L858R]
[2] = biological target: Epidermal growth factor receptor (Homo sapiens, UniProt P00533, L858R); assay: Binding affinity to EGFR L858R mutant (unknown origin) assessed as apparent inhibition constant in presence of ATP by TR-FRET assay; settings: read-out: Ki(app)
Homo sapiens = species on record: Homo sapiens; assay: Selectivity ratio, ratio of Ki for human wild type EGFR to Ki for EGFR L858R mutant (unknown origin)
[3] = system: Epidermal growth factor receptor (Homo sapiens), P00533 [L858R]; remark: listed apart in the source
[4] = system: Epidermal growth factor receptor (Homo sapiens), P00533 [L858R,T790M]
Epidermal growth factor receptor (Homo sapiens), P00533 [L858R,T790M], sequence (P00533 whole entry T790M/L858R, looked up): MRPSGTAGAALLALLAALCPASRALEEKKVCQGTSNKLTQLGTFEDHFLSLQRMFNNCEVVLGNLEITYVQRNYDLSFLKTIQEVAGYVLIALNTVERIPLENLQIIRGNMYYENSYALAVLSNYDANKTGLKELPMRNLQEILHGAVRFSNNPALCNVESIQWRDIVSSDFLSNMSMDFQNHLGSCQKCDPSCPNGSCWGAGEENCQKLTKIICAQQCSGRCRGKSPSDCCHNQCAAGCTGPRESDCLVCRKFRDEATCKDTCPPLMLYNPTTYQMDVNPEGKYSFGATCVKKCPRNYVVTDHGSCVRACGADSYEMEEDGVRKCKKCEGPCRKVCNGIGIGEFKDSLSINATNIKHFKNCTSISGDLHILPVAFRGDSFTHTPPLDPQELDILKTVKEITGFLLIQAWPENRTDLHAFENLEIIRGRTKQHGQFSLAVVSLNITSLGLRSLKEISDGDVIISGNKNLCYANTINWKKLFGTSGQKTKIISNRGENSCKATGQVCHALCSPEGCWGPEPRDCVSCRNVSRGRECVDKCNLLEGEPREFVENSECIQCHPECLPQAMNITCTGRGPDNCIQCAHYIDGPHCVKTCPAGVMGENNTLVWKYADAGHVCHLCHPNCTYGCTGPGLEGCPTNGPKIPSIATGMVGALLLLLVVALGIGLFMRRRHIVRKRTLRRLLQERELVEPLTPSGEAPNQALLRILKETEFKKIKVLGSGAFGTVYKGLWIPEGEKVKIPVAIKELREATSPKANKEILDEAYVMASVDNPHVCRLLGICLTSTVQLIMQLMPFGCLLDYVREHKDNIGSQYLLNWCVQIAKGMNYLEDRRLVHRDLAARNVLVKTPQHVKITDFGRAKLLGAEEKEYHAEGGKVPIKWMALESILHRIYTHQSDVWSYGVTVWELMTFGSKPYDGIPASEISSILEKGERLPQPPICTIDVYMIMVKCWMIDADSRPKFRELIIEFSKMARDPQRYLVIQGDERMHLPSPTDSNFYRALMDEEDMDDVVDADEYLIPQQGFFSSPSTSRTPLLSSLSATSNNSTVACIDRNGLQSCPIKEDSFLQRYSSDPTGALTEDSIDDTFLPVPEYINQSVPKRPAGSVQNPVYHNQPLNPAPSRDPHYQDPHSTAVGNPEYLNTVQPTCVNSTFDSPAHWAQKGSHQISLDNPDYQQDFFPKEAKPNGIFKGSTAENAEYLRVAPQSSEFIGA

Epidermal growth factor receptor (Homo sapiens), P00533 [L858R], sequence (P00533 whole entry L858R): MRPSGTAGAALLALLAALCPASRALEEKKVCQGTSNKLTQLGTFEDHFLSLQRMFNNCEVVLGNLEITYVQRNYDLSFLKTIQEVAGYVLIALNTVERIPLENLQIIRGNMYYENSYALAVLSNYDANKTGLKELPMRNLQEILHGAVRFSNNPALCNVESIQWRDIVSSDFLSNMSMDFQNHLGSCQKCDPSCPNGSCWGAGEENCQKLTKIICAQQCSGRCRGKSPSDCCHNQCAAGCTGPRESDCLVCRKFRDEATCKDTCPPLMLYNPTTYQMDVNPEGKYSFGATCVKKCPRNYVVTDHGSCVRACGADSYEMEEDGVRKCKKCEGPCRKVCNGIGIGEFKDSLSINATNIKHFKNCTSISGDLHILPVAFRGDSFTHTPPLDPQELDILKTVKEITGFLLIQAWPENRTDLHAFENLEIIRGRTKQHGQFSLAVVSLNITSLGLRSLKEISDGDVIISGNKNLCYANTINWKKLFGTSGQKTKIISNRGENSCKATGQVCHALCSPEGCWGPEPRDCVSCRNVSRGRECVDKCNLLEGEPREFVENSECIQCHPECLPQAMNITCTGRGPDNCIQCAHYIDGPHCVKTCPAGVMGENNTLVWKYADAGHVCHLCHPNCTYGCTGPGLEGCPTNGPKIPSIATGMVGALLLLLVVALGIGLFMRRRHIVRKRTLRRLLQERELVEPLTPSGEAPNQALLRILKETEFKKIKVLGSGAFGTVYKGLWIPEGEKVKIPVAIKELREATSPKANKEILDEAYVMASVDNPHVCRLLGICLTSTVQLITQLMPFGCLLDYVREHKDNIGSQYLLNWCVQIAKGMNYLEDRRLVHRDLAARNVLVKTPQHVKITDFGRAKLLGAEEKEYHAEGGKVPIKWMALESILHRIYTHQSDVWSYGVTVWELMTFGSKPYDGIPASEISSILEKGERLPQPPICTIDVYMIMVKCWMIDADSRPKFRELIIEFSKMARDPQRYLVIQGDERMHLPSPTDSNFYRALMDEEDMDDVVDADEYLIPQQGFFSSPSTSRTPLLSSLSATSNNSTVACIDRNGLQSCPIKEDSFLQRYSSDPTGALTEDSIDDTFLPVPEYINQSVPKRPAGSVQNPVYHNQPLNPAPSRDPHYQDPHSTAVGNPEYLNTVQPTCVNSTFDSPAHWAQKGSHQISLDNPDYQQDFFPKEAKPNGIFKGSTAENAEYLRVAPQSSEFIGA
Epidermal growth factor receptor, sequence (P00533 25-1210 L858R limits assumed): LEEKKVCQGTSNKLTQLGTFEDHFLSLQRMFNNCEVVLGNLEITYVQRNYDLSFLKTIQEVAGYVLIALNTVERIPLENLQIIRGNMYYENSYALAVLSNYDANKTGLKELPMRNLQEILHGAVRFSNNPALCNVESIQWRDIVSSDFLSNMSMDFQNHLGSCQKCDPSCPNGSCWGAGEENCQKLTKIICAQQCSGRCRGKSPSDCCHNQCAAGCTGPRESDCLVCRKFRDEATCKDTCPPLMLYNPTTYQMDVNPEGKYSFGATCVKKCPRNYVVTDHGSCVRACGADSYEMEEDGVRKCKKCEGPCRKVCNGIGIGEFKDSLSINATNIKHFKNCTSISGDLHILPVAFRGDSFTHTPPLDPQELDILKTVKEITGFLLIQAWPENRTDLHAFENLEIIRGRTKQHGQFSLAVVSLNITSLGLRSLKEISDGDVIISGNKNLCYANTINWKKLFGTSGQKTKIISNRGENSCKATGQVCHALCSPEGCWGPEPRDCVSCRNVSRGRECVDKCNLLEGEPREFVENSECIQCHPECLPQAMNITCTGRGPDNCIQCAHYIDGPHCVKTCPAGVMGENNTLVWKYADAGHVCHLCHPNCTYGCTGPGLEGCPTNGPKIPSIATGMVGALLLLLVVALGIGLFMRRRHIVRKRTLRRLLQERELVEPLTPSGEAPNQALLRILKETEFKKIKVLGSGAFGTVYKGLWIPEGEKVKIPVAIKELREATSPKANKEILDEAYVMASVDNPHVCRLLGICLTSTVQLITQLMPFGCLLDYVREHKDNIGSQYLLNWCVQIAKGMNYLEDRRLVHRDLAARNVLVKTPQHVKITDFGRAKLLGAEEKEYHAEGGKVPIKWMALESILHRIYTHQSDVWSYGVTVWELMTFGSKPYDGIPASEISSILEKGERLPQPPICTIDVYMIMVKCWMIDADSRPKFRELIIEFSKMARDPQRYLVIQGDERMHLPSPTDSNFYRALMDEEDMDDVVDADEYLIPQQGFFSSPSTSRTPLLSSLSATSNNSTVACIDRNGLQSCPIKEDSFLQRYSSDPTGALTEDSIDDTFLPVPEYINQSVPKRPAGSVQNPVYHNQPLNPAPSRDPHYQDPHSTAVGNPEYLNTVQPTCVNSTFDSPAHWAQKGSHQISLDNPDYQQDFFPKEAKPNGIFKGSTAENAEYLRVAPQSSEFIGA

Structure (SMILES): C=CC(=O)Nc1cc(Nc2nccc(-n3cc(CN(C)C)c(-c4ccccc4)n3)n2)c(OC)cc1N1CCOCC1 [LAZERTINIB]
- Kinact [1]: 5.88 10^-3/s
- Ki [2]: 4.68 nM
- Ratio Ki (Homo sapiens): 0.358
- Kinact [3]: 0.00971 s⁻¹
- Kinact [4]: 3.92 10^-3/s
